# According to patent publication US8546608B2, “Proteasome inhibitors and methods of using the same” (Cephalon, Inc., priority 2003, dated 2013):
# Structures can show the parent of a compound that is named as a salt.
# Legend:
# [1] = biological target: T1, 20S Human Erythrocyte Proteasome (HEP) (Homo sapiens, UniProt P20618+P28074); experiment: Chymotrypsin-like activity of 20S Human Erythrocyte Proteasome (HEP), IC50 determination; type: biochemical; conditions: assay of Example C, inhibition of HEP
# T1 construct: 20S Human Erythrocyte Proteasome (HEP), purchased from Immatics Biotechnologies Inc; purchased Immatics Biotechnologies Inc., Tübingen, Germany; host or cells: human erythrocytes (natural source)
# In short: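 20S proteasome at 0.2 μg/mL (about 0.6 nM catalytic sites) in 20 mM Tris with 0.04% SDS, preincubated 15 min at 37° C with inhibitor before Suc-LLVY-AMC (100 μM final). AMC fluorescence read in the linear range; triplicates, IC50 from concentration series.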
# [2] = biological target: T2, proteasome in Molt-4 cells (human leukemia) (Homo sapiens, UniProt P20618+P28074); type: cell-based; conditions: assay of Example E, inhibition of MOLT4; read-out: MOLT4 (EC50)
# T2 sequence (P28074 60-263): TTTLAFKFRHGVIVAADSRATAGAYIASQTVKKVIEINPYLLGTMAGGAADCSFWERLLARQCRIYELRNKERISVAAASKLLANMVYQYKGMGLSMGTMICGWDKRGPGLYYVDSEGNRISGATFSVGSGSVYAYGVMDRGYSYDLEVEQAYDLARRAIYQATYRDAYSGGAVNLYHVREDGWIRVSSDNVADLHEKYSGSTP
# T2 sequence (P20618 29-241): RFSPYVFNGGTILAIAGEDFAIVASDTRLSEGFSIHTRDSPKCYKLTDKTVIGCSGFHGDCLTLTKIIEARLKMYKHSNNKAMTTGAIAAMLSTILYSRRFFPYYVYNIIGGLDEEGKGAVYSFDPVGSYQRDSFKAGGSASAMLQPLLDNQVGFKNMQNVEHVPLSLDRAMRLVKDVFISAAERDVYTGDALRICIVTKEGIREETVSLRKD
# In short: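 Intact Molt-4 cells (6×10^6 cells/mL) in HEPES-buffered saline were preincubated with inhibitor 15 min at 37 °C, then given cell-permeable MeOSuc-FLF-AFC at 25 μM final.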
IC50 [1] [µM],EC50 [2] [µM],Compound
< 0.01,< 0.2,"CC(C)C[C@H](NC(=O)[C@@H](NC(=O)CCCc1ccccc1)[C@@H](C)O)B1O[C@@H]2C[C@@H]3C[C@@H](C3(C)C)[C@]2(C)O1 [D.3.176, 4-Phenylbutanamide,N-[(1S,2R)-1-[[[(1R)-1-[(3aS,4S,6S,7aR)-hexahydro-3a,5,5-trimethyl-4,6-methano-l53.2-benzodioxaborol-2-yl]-3-methylbutyl]amino]carbonyl]-2-hydroxypropyl]]"
< 0.01,> 10,CC(C)C[C@H](NC(=O)[C@H](CCCNC(=N)N[N+](=O)[O-])NC(=O)Cn1cnnn1)B1O[C@@H]2C[C@@H]3C[C@@H](C3(C)C)[C@]2(C)O1 [D.3.136]
< 0.01,> 10,"CC(C)C[C@H](NC(=O)[C@H](CCCNC(=N)N[N+](=O)[O-])NC(=O)CCCC(=O)c1ccccc1)B(O)O [D.7.6, Boronic acid, [(1R)-1-[[(2S)-5-[[imino(nitroamino)methyl]amino]-2-[(5-oxo-5-phenylpentanoyl)amino]-1-oxopentyl]amino]-3-methylbutyl]]"
< 0.01,< 0.2,"CC(C)C[C@H](NC(=O)[C@@H](NC(=O)c1ccc(-c2cccnc2)cc1)[C@@H](C)O)B(O)O [E.4, Boronic Acid, [(1R)-1-[[(2S,3R)-3-hydroxy-2-[[4-(3-pyridyl)benzoyl]amino]-1-oxobutyl]amino]-3-methylbutyl]]"
< 0.01,< 0.2,"CCCCCCCCCCCC(=O)N[C@@H](CCCNC(=N)N[N+](=O)[O-])C(=O)N[C@@H](CC(C)C)B(O)O [E.2.12, Boronic acid, [(1R)-1-[[(2S)-5-[[imino(nitroamino)methyl]amino]-2-[(dodecanoyl)amino]-1-oxopentyl]amino]-3-methylbutyl]]"
< 0.01,< 0.2,"CC(C)C[C@H](NC(=O)[C@H](CCCNC(=N)N[N+](=O)[O-])NC(=O)CCCCCCC(=O)c1ccccc1)B1O[C@@H]2C[C@@H]3C[C@@H](C3(C)C)[C@]2(C)O1 [D.3.125, 8-Oxo-8-phenyloctanamide,N-[(1S)-1-[[[(1R)-1-[(3aS,4S,6S,7aR)-hexahydro-3a,5,5-trimethyl-4,6-methano-l,3,2-benzodioxaborol-2-yl]-3-methylbutyl]amino]carbonyl]-4-[[imino(nitroamino)methyl]amino]butyl]]"
< 0.01,2 to 10,"CCCCC(C)(C)C(=O)N[C@@H](CCCNC(=N)N[N+](=O)[O-])C(=O)N[C@@H](CC(C)C)B(O)O [D.7.21, Boronic acid, [(1R)-1-[[(2S)-5-[[imino(nitroamino)methyl]amino]-2-[(2,2-dimethylhexanoyl)amino]-1-oxopentyl]amino]-3-methylbutyl]]"
< 0.01,0.2 to 2,"CC(C)C[C@H](NC(=O)[C@H](CCCNC(=N)N[N+](=O)[O-])NC(=O)CCCCCCCCCO)B1O[C@@H]2C[C@@H]3C[C@@H](C3(C)C)[C@]2(C)O1 [D.3.133, 10-Hydroxydecanamide,N-[(1S)-1-[[[(1R)-1-[(3aS,4S,6S,7aR)-hexahydro-3a,5,5-trimethyl-4,6-methano-1,3,2-benzodioxaborol-2-yl]-3-methylbutyl]amino]carbonyl]-4-[[imino(nitroamino)methyl]amino]butyl]]"
< 0.01,< 0.2,"CCCCC[C@H]1CC[C@H](C(=O)N[C@@H](CCCNC(=N)N[N+](=O)[O-])C(=O)N[C@@H](CC(C)C)B2O[C@@H]3C[C@@H]4C[C@@H](C4(C)C)[C@]3(C)O2)CC1 [D.3.11, trans-4-Pentylcyclohexanecarboxamide, N-[(1S)-1-[[[(1R)-1-[(3aS,4S,6S,7aR)-hexahydro-3a,5,5-trimethyl-4,6-methano-1,3,2-benzodioxaborol-2-yl]-3-methylbutyl]amino]carbonyl]-4-[[imino(nitroamino)methyl]amino]butyl]]"
< 0.01,< 0.2,CC(C)C[C@H](NC(=O)[C@H](CCCNC(=N)N[N+](=O)[O-])NC(=O)CSc1ccc2ccccc2c1)B1O[C@@H]2C[C@@H]3C[C@@H](C3(C)C)[C@]2(C)O1 [D.3.37]
< 0.01,2 to 10,"CC(C)C[C@H](NC(=O)[C@H](CCCNC(=N)N[N+](=O)[O-])NC(=O)CSc1ccc2ccccc2c1)B(O)O [E.2.58, Boronic acid, [(1R)-1-[[(2S)-5-[[imino(nitroamino)methyl]amino]-2-[[2-(2-naphthylsulfanyl)acetyl]amino]-1-oxopentyl]amino]-3-methylbutyl]]"
< 0.01,0.2 to 2,"CC(=O)SCCCCCC(=O)N[C@@H](CCCNC(=N)N[N+](=O)[O-])C(=O)N[C@@H](CC(C)C)B1O[C@@H]2C[C@@H]3C[C@@H](C3(C)C)[C@]2(C)O1 [D.3.161, 6-(Acetylsulfanyl)hexanamide,N-[(1S)-1-[[[(1R)-1-[(3aS,4S,6S,7aR)-hexahydro-3a,5,5-trimethyl-4,6-methano-1,3,2-benzodioxaborol-2-yl]-3-methylbutyl]amino]carbonyl]-4-[[imino(nitroamino)methyl]amino]butyl]]"
< 0.01,< 0.2,"CCCCCCCCCC(=O)N[C@H](C(=O)N[C@@H](CC(C)C)B(O)O)[C@@H](C)O [E.1.17, Boronic acid, [(1R)-1-[[(2S,3R)-3-hydroxy-2-[(decanoyl)amino]-1-oxobutyl]amino]-3-methylbutyl]]"
< 0.01,> 10,"CC(C)C[C@H](NC(=O)[C@H](CCCNC(=N)N[N+](=O)[O-])NC(=O)/C=C/c1cccs1)B(O)O [D.7.23, Boronic acid, [(1R)-1-[[(2S)-5-[[imino(nitroamino)methyl]amino]-2-[[3-(thiophen-2-yl)propenoyl]amino]-1-oxopentyl]amino]-3-methylbutyl]]"
< 0.01,< 0.2,"CCCCc1ccc(C(=O)N[C@@H](CNC(=O)c2ccc(-n3cncn3)cc2)C(=O)N[C@@H](CC(C)C)B(O)O)cc1 [E.5.40, Boronic acid, [(1R)-1-[[(2S)-3-(4-(1H-1,2,4-triazol-1-yl)benzoylamide)]-2-[(4-butylbenzoyl)amino]-1H-oxopropyl]amino]-3-methylbutyl] hydrochloride]"
< 0.01,< 0.2,"CC(C)C[C@H](NC(=O)[C@H](CCCNC(=N)N[N+](=O)[O-])NC(=O)c1ccc2ccccc2c1)B1O[C@@H]2C[C@@H]3C[C@@H](C3(C)C)[C@]2(C)O1 [D.1.1, Naphthalen-2-carboxamide,N-[(1S)-1-[[[(1R)-1-[(3aS,4S,6S,7aR)-hexahydro-3a,5,5-trimethyl-4,6-methano-1,3,2-benzodioxaborol-2-yl]-3-methylbutyl]amino]carbonyl]-4-[[imino(nitroamino)methyl]amino]butyl]]"
< 0.01,2 to 10,"Cc1ccc(CCCC(=O)N[C@@H](CCCNC(=N)N[N+](=O)[O-])C(=O)N[C@@H](CC(C)C)B(O)O)cc1 [D.7.3, Boronic acid, [(1R)-1-[[(2S)-5-[[imino(nitroamino)methyl]amino]-2-[(4-(4-methylphenyl)butanoyl)amino]-1-oxopentyl]amino]-3-methylbutyl]]"
< 0.01,> 10,"CC(C)C[C@H](NC(=O)[C@H](CCCNC(=N)N[N+](=O)[O-])NC(=O)c1cccs1)B(O)O [E.2.10, Boronic acid, [(1R)-1-[[(2S)-5-[[imino(nitroamino)methyl]amino]-2-[(2-thiophenecarbonyl)amino]-1-oxopentyl]amino]-3-methylbutyl]]"
< 0.01,2 to 10,"CC(C)C[C@H](NC(=O)[C@H](CCCNC(=N)N[N+](=O)[O-])NC(=O)c1ccc(-n2cccc2)cc1)B(O)O [D.7.27, Boronic acid, [(1R)-1-[[(2S)-5-[[imino(nitroamino)methyl]amino]-2-[(4-pyrrol-1-ylbenzoyl)amino]-1-oxopentyl]amino]-3-methylbutyl]]"
< 0.01,< 0.2,"COc1ccc2cc([C@H](C)C(=O)N[C@@H](CCCNC(=N)N[N+](=O)[O-])C(=O)N[C@@H](CC(C)C)B3O[C@@H]4C[C@@H]5C[C@@H](C5(C)C)[C@]4(C)O3)ccc2c1 [D.3.93, (2S)-2-(6-Methoxynaphthalen-2-yl)-propanamide,N-[(1S)-1-[[[(1R)-1-[(3aS,4S,6S,7aR)-hexahydro-3a,5,5-trimethyl-4,6-methano-1,3,2-benzodioxaborol-2-yl]-3-methylbutyl]amino]carbonyl]-4-[[imino(nitroamino)methyl]amino]butyl]]"

Compound,IC50 [1] [µM],EC50 [2] [µM]
"Boronic acid, [(1R)-1-[[(2S)-5- [[imino(nitroamino)methyl]amino]-2-[(hexahydro- 2,5-methanopentalene-3a(1H)-carbonyl)amino]-1- oxopentyl]amino]-3-methylbutyl] [E.2.24]",< 0.01,> 10
"CCCCOCC(=O)N[C@@H](CCCNC(=N)N[N+](=O)[O-])C(=O)N[C@@H](CC(C)C)B(O)O [E.1.7, Boronic acid, [(1R)-1-[[(2S)-5-[[imino (nitroamino)methyl]amino]-2-[(2-butoxyacetyl)amino]-1-oxopentyl]amino]-3-methylbutyl]]",< 0.01,2 to 10
